The text below walks through data of ChEMBL document CHEMBL4000203, “Green synthesis and anticancer potential of chalcone linked-1,2,3-triazoles” (Eur J Med Chem, 2017).

One may read the IC50 as the concentration at which inhibition is half-maximal. A low value points to greater potency.

The test system of series [1] is MCF7. As to the kind of experiment: Cytotoxicity against human MCF7 cells assessed as growth inhibition at 10 uM measured after 48 hrs by MTT assay relative to control. The class given is functional. The conditions noted are these: for inhibition of growth at 10 µM: MCF7, 48 h, read-out: GI. A general note: Tetrazolium assays rely on reduction of a dye to a coloured formazan, in cell work by metabolically active cells.

In series [2] the test system is MIA PaCa-2. As to the kind of experiment: Cytotoxicity against human MIAPaCa2 cells assessed as growth inhibition at 10 uM measured after 48 hrs by MTT assay relative to control. The settings on record: for inhibition of growth at 10 µM: MIA PaCa-2, 48 h, read-out: GI. The class given is functional.
For series [3], the system named is A549. As to the kind of experiment: Cytotoxicity against human A549 cells assessed as growth inhibition at 10 uM measured after 48 hrs by MTT assay relative to control. The conditions noted are these: for inhibition of growth at 10 µM: A549, 48 h, read-out: GI. Format: functional.
For series [4], the system named is HepG2. As to the kind of experiment: Cytotoxicity against human HepG2 cells assessed as growth inhibition at 10 uM measured after 48 hrs by MTT assay relative to control. Format: functional. The settings on record: for inhibition of growth at 10 µM: HepG2, 48 h, read-out: GI.
Series [5] can be described thus: Cytotoxicity against human FR2 cells assessed as growth inhibition at 10 uM measured after 48 hrs by MTT assay relative to control. Format: cell-based. The settings on record: for inhibition at 48 h, 10 µM: FR2 cells, read-out: GI; for growth inhibition (GI): fr2, 48 h, 10 µM.
The subject of series [6] is MCF7. As to the kind of experiment: Cytotoxicity against human MCF7 cells measured after 48 hrs by MTT assay. The class given is functional, cell-based. The conditions noted are these: MCF7, 48 h.
Series [7] relates to MIA PaCa-2. As to the kind of experiment: Cytotoxicity against human MIAPaCa2 cells measured after 48 hrs by MTT assay. Format: functional, cell-based. The conditions noted are these: MIA PaCa-2, 48 h.
Series [8] concerns A549. As to the kind of experiment: Cytotoxicity against human A549 cells measured after 48 hrs by MTT assay. Format: functional, cell-based. The conditions noted are these: A549, 48 h.
Series [9] relates to HepG2. As to the kind of experiment: Cytotoxicity against human HepG2 cells measured after 48 hrs by MTT assay. The class given is functional, cell-based. The settings on record: HepG2, 48 h.
Series [10] in a line: Cytotoxicity against human FR2 cells measured after 48 hrs by MTT assay. The class given is cell-based. The conditions noted are these: FR2, 48 h.

Active and inactive are the calls of the source. No cut-off for these calls is given here. Bounds are passed on as bounds.

As for `O=C(/C=C/c1ccc(OCc2cn(Cc3ccc(F)cc3)nn2)cc1)c1ccc(Br)cc1`, the inhibition of growth at 10 µM in [1] was 37%; in [2] it was 32%; in series [3], 43%; in series [4], 22%. The inhibition at 48 h, 10 µM in series [5] turned out to be 7%.

Take `O=C(/C=C/c1ccc(OCc2cn(Cc3ccc(F)cc3)nn2)cc1)c1ccc([N+](=O)[O-])cc1`: the inhibition of growth at 10 µM in series [1] was found to be 38%; in series [2] it was 44%; in [3], 34%; in series [4], 25%. Also, in series [5], the inhibition at 48 h, 10 µM amounted to 8%.

`C#CCOc1ccc(/C=C/C(=O)c2ccc(OC)cc2)cc1`: the inhibition of growth at 10 µM in [1] was 32%; in [2] it was 32%; in series [3] it was 27%; in [4], 25%. Also, the inhibition at 48 h, 10 µM in [5] was 8%.

In the case of `Oc1cccc(-c2nc(N3CCOCC3)c3oc4ncccc4c3n2)c1` [PI-103], the inhibition of growth at 10 µM stood at 97% in series [1], 93% in series [2], 89% in series [3] and 65% in [4]. Moreover, in [5], the inhibition at 48 h, 10 µM came out at 25%. Moreover, the IC50 in [6] was 3 µM; in series [7], 6 µM; in series [8], 4 µM; in [9], 8 µM; in [10] it was > 50 µM.

Turning to `O=C(/C=C/c1ccc(OCc2cn(Cc3ccccc3)nn2)cc1)c1ccc([N+](=O)[O-])cc1`, the “growth inhibition (GI)” value in series [1], in series [2], in series [3] and in series [4] was “inactive” throughout. Besides, the “growth inhibition (GI)” value in series [5] is “Non-Toxic”.

For `O=C(/C=C/c1ccc(OCc2cn(Cc3ccccc3)nn2)cc1)c1ccc(Br)cc1`, the inhibition of growth at 10 µM in series [1] is 34%; in series [2], 44%; in series [3], 34%; in [4], 22%. Besides, the inhibition at 48 h, 10 µM in series [5] came to 7%.

As for `O=C(/C=C/c1ccc(OCc2cn(Cc3ccccc3F)nn2)cc1)c1ccc(Br)cc1`, the inhibition of growth at 10 µM was 38% in [1], 28% in series [2], 38% in [3] and 29% in series [4]. Besides, in series [5], the inhibition at 48 h, 10 µM is 8%.

For the compound `O=C(/C=C/c1ccc(OCc2cn(Cc3ccccc3Br)nn2)cc1)c1ccc(Br)cc1`, the inhibition of growth at 10 µM in series [1] came out at 44%; in series [2] it was 43%; in series [3] it was 44%; in series [4] it was 34%. The inhibition at 48 h, 10 µM in series [5] came to 11%.

Regarding `COc1ccc(C(=O)/C=C/c2ccc(OCc3cn(Cc4ccccc4F)nn3)cc2)cc1`, the inhibition of growth at 10 µM in series [1] is 32%; in series [2] it was 19%; in series [3], 21%; in series [4], 33%. Also, the inhibition at 48 h, 10 µM in series [5] amounted to 11%.

As for `COc1ccc(C(=O)/C=C/c2ccc(OCc3cn(Cc4ccccc4Br)nn3)cc2)cc1`, the inhibition of growth at 10 µM in series [1] is 60%; in series [2], 50%; in series [3], 52%; in series [4], 44%. Moreover, in series [5], the inhibition at 48 h, 10 µM was determined as 7%. The IC50 is 7 µM in series [6]; 10 µM in series [7]; 10 µM in series [8]; 20 µM in series [9]; > 100 µM in series [10].

For the compound `O=C(/C=C/c1ccc(OCc2cn(Cc3ccccc3F)nn2)cc1)c1ccc([N+](=O)[O-])cc1`, the inhibition of growth at 10 µM in [1] came out at 33%; in [2] it was 22%; in series [3] it was 43%; in series [4] it was 22%. In addition, the inhibition at 48 h, 10 µM in series [5] was determined as 12%.

As for `COc1ccc(C(=O)/C=C/c2ccc(OCc3cn(Cc4ccc(F)cc4)nn3)cc2)cc1`, the inhibition of growth at 10 µM in [1] was 15%; in [2], 6%; in [3], 33%; in series [4], 21%. Also, the “growth inhibition (GI)” value in series [5] is “Non-Toxic”.

`C#CCOc1ccc(/C=C/C(=O)c2ccc([N+](=O)[O-])cc2)cc1`: the inhibition of growth at 10 µM in series [1] came to 44%; in series [2], 42%; in series [3], 33%; in [4], 27%. Also, the inhibition at 48 h, 10 µM in [5] was determined as 2%.

For the compound `O=C(/C=C/c1ccc(OCc2cn(Cc3ccc(Br)cc3)nn2)cc1)c1ccc(Br)cc1`, the inhibition of growth at 10 µM in [1] amounted to 23%; in series [2], 29%; in series [3], 27%; in [4], 22%. The inhibition at 48 h, 10 µM in series [5] was found to be 11%.

Consider `COc1ccc(C(=O)/C=C/c2ccc(OCc3cn(Cc4cccc(F)c4)nn3)cc2)cc1`, for which the inhibition of growth at 10 µM in series [1] was 41%; in series [2], 48%; in [3], 56%; in series [4] it was 22%. In addition, the inhibition at 48 h, 10 µM in series [5] was 12%. The IC50 is 55 µM in series [6]; 15 µM in [7]; 9 µM in [8]; 85 µM in [9]; > 100 µM in series [10].

For the compound `O=C(/C=C/c1ccc(OCc2cn(Cc3cccc(F)c3)nn2)cc1)c1ccc(Br)cc1`, the inhibition of growth at 10 µM in [1] worked out at 42%; in [2], 34%; in [3], 37%; in series [4] it was 34%. Moreover, the inhibition at 48 h, 10 µM in series [5] was 4%.

For the compound `O=C(/C=C/c1ccc(OCc2cn(Cc3ccc(Br)cc3)nn2)cc1)c1ccc([N+](=O)[O-])cc1`, the inhibition of growth at 10 µM in series [1] is 18%; in series [2] it was 17%; in series [3], 18%; in series [4] it was 21%. The inhibition at 48 h, 10 µM in series [5] stood at 10%.

Take `O=C(/C=C/c1ccc(OCc2cn(Cc3cccc(F)c3)nn2)cc1)c1ccc([N+](=O)[O-])cc1`: the inhibition of growth at 10 µM turned out to be 30% in [1], 32% in [2], 33% in [3] and 43% in series [4]. For the same compound, the inhibition at 48 h, 10 µM in series [5] turned out to be 5%.

For the compound `O=C(/C=C/c1ccc(OCc2cn(Cc3cccc(Br)c3)nn2)cc1)c1ccc(Br)cc1`, the inhibition of growth at 10 µM in series [1] is 36%; in series [2] it was 43%; in series [3] it was 44%; in series [4] it was 25%. Moreover, the inhibition at 48 h, 10 µM in [5] is 9%.

As for `O=C(/C=C/c1ccc(OCc2cn(Cc3cccc(Br)c3)nn2)cc1)c1ccc([N+](=O)[O-])cc1`, the inhibition of growth at 10 µM in series [1] was 12%; in [2], 21%; in [3], 28%; in series [4] it was 13%. Also, the inhibition at 48 h, 10 µM in series [5] is 4%.

With `C#CCOc1ccc(/C=C/C(=O)c2ccc(Br)cc2)cc1`, the inhibition of growth at 10 µM in [1] is 45%; in [2] it was 34%; in series [3], 34%; in series [4], 22%. Further, the inhibition at 48 h, 10 µM in series [5] was found to be 9%.

Consider `O=C(/C=C/c1ccc(OCc2cn(Cc3ccccc3Br)nn2)cc1)c1ccc([N+](=O)[O-])cc1`, for which the inhibition of growth at 10 µM was found to be 43% in series [1], 34% in series [2], 42% in series [3] and 32% in series [4]. For the same compound, the inhibition at 48 h, 10 µM in series [5] came to 2%.

Take `COc1ccc(C(=O)/C=C/c2ccc(OCc3cn(Cc4ccc(Br)cc4)nn3)cc2)cc1`: the inhibition of growth at 10 µM turned out to be 53% in [1], 56% in series [2], 50% in series [3] and 59% in series [4]. Further, in series [5], the inhibition at 48 h, 10 µM was found to be 2%. Further, the IC50 in [6] is 9 µM; in series [7], 8 µM; in series [8] it was 10 µM; in series [9] it was 8 µM; in [10], > 100 µM.

Regarding `COc1ccc(C(=O)/C=C/c2ccc(OCc3cn(Cc4cccc(Br)c4)nn3)cc2)cc1`, the inhibition of growth at 10 µM in series [1] was found to be 45%; in [2], 50%; in series [3], 47%; in series [4] it was 27%. In addition, the inhibition at 48 h, 10 µM in series [5] is 3%. Moreover, the IC50 in series [6] was 20 µM; in [7], 10 µM; in series [8], 15 µM; in [9], 60 µM; in series [10] it was > 100 µM.
